# Assay results from US8173428B2, “LNA oligonucleotides and the treatment of cancer” (Santaris Pharma A/S, priority 2004, dated 2012).
# Oligonucleotides are written 5' to 3', each unit as a sugar letter and its base; * is a phosphorothioate linkage, no mark a phosphodiester; rarer units and linkages stand in square brackets, end groups in braces. Plain capitals give the bases only. l = locked nucleic acid (LNA); [5mC] = 5-methylcytosine; d = 2'-deoxy (DNA)
# Key:
# 15PC3 cells [1] = assay: Caspase 3/7 assay, oligonucleotide in combination with Taxol; type: cell-based, human; conditions: 10 nM oligonucleotide with Taxol (10 nM or 100 nM), 48 hours and 72 hours
# Description: Cell culturing: Human prostate cancer 15PC3 cells (kindly provided by Dr. F Baas, Neurozintuigen Laboratory, AMC, The Netherlands) were seeded to a density of 8×10E5 cells in T75-flasks and grown for two days at 37° C. and 5% CO2 in DMEM supplemented with 10% FBS, Glutamax and Gentamicin. Two days following seeding cells were transfected with 2-10 nM SEQ ID NO. 2 using Lipofectamine at a final conc. of 7.5 μg/ml. Transfections were carried out as described by Dean et al. (1994, JBC 269 p. 16416 16424). In short cells were incubated with Lipofectamine diluted in OptiMEM for 7-10 min followed by the addition of the oligonucleotide to total volume of 8.7 ml per T75 flask. […] Cells were harvested for either mRNA extraction, Caspase 3/7 assay or fixed, stained with PI and analysed by FACS analysis.
# Caspase 3/7 assay: An equal amount of 15PC3 cells ranging from 2500-10000 cells were harvested by centrifugation at the indicated periods and plated in white 96 well plates (Nunc 136101) in DMEM. 100 μl of the highly sensitive Caspase 3/7-Glo™ Reagent (Promega) was added directly to the cells in 96 well and plates were incubated for 1 hour before recording luminescence (luciferase activity) in Luminoskan Ascent instrument from Thermo Labsystems after further 1 min lag period. The luciferase activity is measured as Relative Light Units per seconds (RLU/s). […]
# [2] = Stability in mouse plasma; type: in vitro ADME; conditions: 20 μM, 37° C., up to 96 hours
# Description: Stability of 20 μM SEQ ID NO. 2 and SEQ ID NO. 24 in human and mouse plasma (Li-Heparine (Taconic, M&B)) at 37° C. at different time aliquots: 0, 1, 2, 4, 24, 48 and 96 hours. A commercially available ladder was also included (10 and 20 mer are visible on the PAGE). (see FIG. 1)
# Survivin protein = assay: Western blot analysis of Survivin protein levels in transfected 15PC3 cells; type: cell-based, human; conditions: 1, 10 and 25 nM, 12, 24 and 48 hours, compared with mock
# Description: Cell culturing and transfections: 15PC3 cells were seeded in 12-well plates and grown for two days at 37° C. (5% CO2) in DMEM supplemented with 10% FBS, Glutamax I and Gentamicin. When the cells were 60-70% confluent, they were transfected in duplicates with different concentrations of oligonucleotides (0.2-25 nM) using Lipofectamine 2000 (10 μg/ml). Transfections were carried out essentially as described by Dean et al. (1994, JBC 269:16416-16424). In short, cells were incubated for 10 min. with Lipofectamine in OptiMEM followed by addition of oligonucleotide to a total volume of 0.5 ml transfection mix per well. After 4 hours, the transfection mix was removed, cells were washed and grown at 37° C. for approximately 20 hours (mRNA analysis) or 12-72 hours (protein analysis) in the appropriate growth medium. Cells were then harvested for protein and RNA analysis.
# The in vitro effect of Survivin oligoes on Survivin protein levels in transfected cells was determined by Western Blotting.
# Cells were harvested and lysed in 50 mM Tris-HCl pH 6.8, 10% glycerol, 2.5% SDS, 5 mM DTT and 6 M urea supplemented with protease inhibitor cocktail (Roche). Total protein concentrations were measured using a BCA protein assay kit (Pierce). 50 μg total protein was run on a 12% Bis-Tris gels in MOPS buffer and blotted onto a PVDF membranes according to manufacture's instructions (Invitrogen). […]
# 15PC3 cells [3] = assay: Cell cycle analysis by propidium iodide staining and FACS; type: cell-based, human; conditions: transfected 15PC3 cells exposed to different concentrations of Taxol
# Description: Cell culturing: Human prostate cancer 15PC3 cells (kindly provided by Dr. F Baas, Neurozintuigen Laboratory, AMC, The Netherlands) were seeded to a density of 8×10E5 cells in T75-flasks and grown for two days at 37° C. and 5% CO2 in DMEM supplemented with 10% FBS, Glutamax and Gentamicin. Two days following seeding cells were transfected with 2-10 nM SEQ ID NO. 2 using Lipofectamine at a final conc. of 7.5 μg/ml. Transfections were carried out as described by Dean et al. (1994, JBC 269 p. 16416 16424). In short cells were incubated with Lipofectamine diluted in OptiMEM for 7-10 min followed by the addition of the oligonucleotide to total volume of 8.7 ml per T75 flask. 4 hours following transfection cells were washed in OptiMEM and grown at 37° C. for 12-96 hours in complete growth medium with or without the addition of 2-100 nM Taxol (Sigma Aldrich). Cells were harvested for either mRNA extraction, Caspase 3/7 assay or fixed, stained with PI and analysed by FACS analysis.
# Cell culturing and transfections: As in example 13.
# Fixation and PI staining: Cells were washed in PBS, harvested and resuspended in 100 μl in ice cold PBS. 900 μl ice cold 70% […] and fixed cells were kept at −20 until use. […]
# SEQ ID NO. 2 transfected 15PC3 cells were exposed to different concentrations of Taxol and analysed by Propidium Iodide staining and subsequent FACS analysis (FIG. 7a-c). […]
substance,measurement,setting,value
5′-^MeCsTs^MeCsAsastscscsastsgsgs^MeCsAsGsc-3′ (l[5mC]*lT*l[5mC]*lA*dA*dT*dC*dC*dA*dT*dG*dG*l[5mC]*lA*lG*dC) [SEQ ID NO. 2],Induction of apoptosis (Caspase 3/7 activity) in combination with Taxol,15PC3 cells [1],clear additive effect on the induction of apoptosis
same,Stability in mouse plasma (degradation products),[2],No degradation products
same,Survivin protein expression by Western blotting,Survivin protein,Survivin protein down-regulation
same,"Cells trapped in the G2 or G4 phase, combination with Taxol",15PC3 cells [3],increasing amount of cells trapped in the G2 or even G4 phase
